Data on two sequences can be found in US10576102B2, “KOC1-derived peptide and vaccine including same” (ONCOTHERAPY SCIENCE, INC., priority 2014, dated 2020).

Test [1] relates to peptide-pulsed C1R-A11. Description: IFN-gamma ELISA of CTL lines and CTL clones (HLA-A*1101). In kind it is cell-based, human. As for the experimental part:
(§1) CTLs were propagated in culture using methods similar to those disclosed by Riddell et al. (Walter E A et al., N Engl J Med 1995, 333(16): 1038-44; Riddell S R et al., Nat Med 1996, 2(2): 216-23). The CTLs were co-cultured in a total of 25 ml AIM-V medium containing 5% AS (AIM-V/5% AS) and 40 ng/ml anti-CD3 antibody with two types of Mitomycin C-treated human B lymphoblastoid cell lines at 5×10^6 cells/flask. One day after beginning of the culturing, 120 IU/ml IL-2 was added to the culture. On days 5, 8 and 11, a fresh AIM-V/5% AS medium containing 30 IU/ml IL-2 was added to the culture (Tanaka H et al., Br J Cancer 2001, 84(1): 94-9; Umano Y et al., Br J Cancer 2001, 84(8): 1052-7; Uchida N et al., Clin Cancer Res 2004, 10(24): 8577-86; Suda T et al., Cancer Sci 2006, 97(5): 411-9; Watanabe T et al., Cancer Sci 2005, 96(8): 498-506).
Dilution of CTLs was carried out to make 0.3, 1 and 3 cells/well in 96 round-bottomed microtiter plates (Nalge Nunc International). The CTLs were co-cultured with two types of Mitomycin C-treated human B lymphoblastoid cell lines at 1×10^4 cells/well in a total of 150 micro-1/well AIM-V/5% AS medium with 30 ng/ml anti-CD3 antibody and 125 IU/ml IL-2. Ten days later, IL-2 was added to the medium at 50 micro-1/well to reach a final concentration of 125 IU/ml. On day 14, the CTL activity was tested, and the CTL clones were propagated using the same method as described above (Uchida N et al., Clin Cancer Res 2004, 10(24): 8577-86; Suda T et al., Cancer Sci 2006, 97(5): 411-9; Watanabe T et al., Cancer Sci 2005, 96(8): 498-506).
(§2) Specifically, peptide-pulsed C1R-A11 (1×10^4 cells/well) was prepared as the stimulator cell. The induced CTLs, i.e., CTL lines and CTL clones, were used as the responder cell. The IFN-gamma ELISPOT assay and IFN-gamma ELISA were performed according to the manufacturer's manual.

The subject of test [2] is peptide-pulsed C1R-A11. The test can be described thus: In vitro CTL induction, IFN-gamma ELISPOT assay (HLA-A*1101). In kind it is cell-based, human. Particulars: CTLs induced with peptide-pulsed DCs from HLA-A*1101-positive volunteers; day 21; vs peptide-pulsed C1R-A11, compared with unpulsed control. The method, then:
C1R (C1R-A11) that stably expresses HLA-A*1101 was used as a stimulator cell. A cDNA encoding the open-reading frame of HLA-A*1101 was amplified by PCR and cloned into an expression vector. C1R cells were transfected with the expression vector, and then selected using G418 (Invitrogen) for two weeks. The G418-selected cells were seeded into wells containing G418-added culture medium in a 96-well plate, and further cultured for 30 days. The exogenous HLA-A*1101 expression in C1R cells was verified by flow cytometric analysis.
(§3) Monocyte-derived dendritic cells (DCs) were used as the antigen-presenting cell to induce a cytotoxic T lymphocyte (CTL) response against peptides presented on human leukocyte antigens (HLAs). As described in the other sections, DCs were generated in vitro (Nakahara S et al., Cancer Res 2003, 63(14): 4112-8). Specifically, peripheral-blood mononuclear cells isolated from healthy volunteers (HLA-A*1101-positive) with the Ficoll-Paque plus solution (Pharmacia) were separated by attaching to plastic tissue culture dishes (Becton Dickinson) and concentrated as a monocyte fraction. The monocyte-concentrated population was cultured in the presence of 1000 IU/ml granulocyte macrophage colony-stimulating factor (R&D System) and 1000 IU/ml interleukin(IL)-4 (R&D System) in an AIM-V medium (Invitrogen) containing 2% heat-inactivated autologous serum (AS). After seven days of culturing, the cytokine-induced DCs were pulsed with 20 micro-g/ml each of the synthesized peptides in an AIM-V medium at 37 degrees C. for three hours in the presence of 3 micro-g/ml beta 2-microglobulin. The generated cells appeared to express on their cell surface DC-associated molecules such as CD80, CD83, CD86 and HLA class II (data not shown). Next, these peptide-pulsed DCs were inactivated, by X-ray irradiation (20 Gy), and mixed in a 1:20 ratio with autologous CD8^+ T cells obtained by positive selection using the CD8 Positive Isolation Kit (Dynal). These culture products were seeded in a 48-well plate (Corning). Each well was made to contain 1.5×10^4 peptide-pulsed DCs, 3×10^5 CD8^+ T cells and 10 ng/ml IL-7 (R&D System) in 0.5 ml of the AIM-V/2% AS medium. Three days later, these culture products were added with a final concentration of 20 IU/ml IL-2 (CHIRON). On day 7 and day 14, T cells were further stimulated with peptide-pulsed autologous DCs. The DCs were prepared every time by the same method as above. On day 21, after the third peptide stimulation, CTLs were examined against the peptide-pulsed C1R-A11 by a human interferon (IFN)-gamma enzyme-linked immunospot (ELISPOT) assay (Tanaka H et al., Br J Cancer 2001, 84(1): 94-9; Umano Y et al., Br J Cancer 2001, 84(8): 1052-7; Uchida N et al., Clin Cancer Res 2004, 10(24): 8577-86; Suda T et al., Cancer Sci 2006, 97(5): 411-9; Watanabe T et al., Cancer Sci 2005, 96(8): 498-506).
as §2

The subject of test [3] is COS7 cells transfected with both KOC1 and HLA-A*1101. Description: Specific CTL activity against target cells expressing KOC1 and HLA-A*1101. In kind it is cell-based, African green monkey. As to conditions: listed as KOC1-A11-10-14. The method, then:
as §2
A cDNA encoding the open-reading frame of a target gene or HLA-A*1101 was amplified by PCR. The PCR-amplified product was cloned into an expression vector. Either or both of the target gene-expressing vector and the HLA-A*1101-expressing vector were transfected into […], which is a cell line negative for the target gene and HLA, using Lipofectamine 2000 (Invitrogen) following the manufacturer's recommended protocol. Two days after transfection, the transfected cells were harvested using versene (Invitrogen), and used as the target cell for CTL activity assay (5×10^4 cells/well).
The CTL clone established against KOC1-A11-10-14 (SEQ ID NO: 32) was investigated for its ability to recognize target cells expressing KOC1 and the HLA-A*1101 molecule. COS7 cells transfected with both full-length KOC1 and the HLA-A*1101 gene (a specific model of target cells expressing KOC1 and the HLA-A*1101 gene) were prepared as the target cell. COS7 cells transfected with either full-length KOC1 or HLA-A*1101 were prepared as the control.

For test [4], the system named is peptide-pulsed C1R-A03. Description: IFN-gamma ELISA of CTL line and CTL clone (HLA-A*0301). In kind it is cell-based, human. The method, then:
as §1
Dilution of CTLs was carried out to make 0.3, 1 and 3 cells/well in 96 round-bottomed microtiter plates (Nalge Nunc International). The CTLs were co-cultured with two types of Mitomycin C-treated human B lymphoblastoid cell lines at 1×10^4 cells/well in a total of 150 micro-1/well AIM-V/5% AS medium with 30 ng/ml anti-CD3 antibody and 125 IU/ml IL-2. Ten days later, IL-2 was added to the medium at 50 micro-1/well to reach a final concentration of 125 IU/ml. […]
(In general: In an ELISA, binding on a coated surface is turned into a signal by an enzyme label.)

The subject of test [5] is COS7 cells transfected with both KOC1 and HLA-A*0301. The test can be described thus: Specific CTL activity against target cells expressing KOC1 and HLA-A*0301. Particulars: listed as KOC1-A03-10-120. In kind it is cell-based, African green monkey. As for the experimental part:
Specifically, peptide-pulsed C1R-A03 (1×10^4 cells/well) was prepared as the stimulator cell. The induced CTLs, i.e., CTL lines and CTL clones, were used as the responder cell. The IFN-gamma ELISPOT assay and IFN-gamma ELISA were performed according to the manufacturer's manual.
A cDNA encoding the open-reading frame of a target gene or HLA-A*0301 was amplified by PCR. The PCR-amplified product was cloned into an expression vector. Either or both of the target gene-expressing vector and the HLA-A*0301-expressing vector were transfected into […], which is a cell line negative for the target gene and HLA, using Lipofectamine 2000 (Invitrogen) following the manufacturer's recommended protocol. Two days after transfection, the transfected cells were harvested using versene (Invitrogen), and used as the target cell for CTL activity assay (5×10^4 cells/well).
The CTL clone established against KOC1-A03-10-120 (SEQ ID NO: 27) was investigated for their ability to recognize target cells expressing KOC1 and the HLA-A*0301 molecule. COS7 cells transfected with both full-length KOC1 and the HLA-A*0301 gene (a specific model of target cells expressing KOC1 and the HLA-A*0301 gene) were prepared as the target cell. COS7 cells transfected with either full-length KOC1 or HLA-A*0301 were prepared as the control.

For test [6], the system named is peptide-pulsed C1R-A03. The test can be described thus: In vitro CTL induction, IFN-gamma ELISPOT assay (HLA-A*0301). In kind it is cell-based, human. As to conditions: CTLs induced with peptide-pulsed DCs from HLA-A*0301-positive volunteers; day 21; vs peptide-pulsed C1R-A03, compared with unpulsed control. The method, then: C1R (C1R-A03) that stably expresses HLA-A*0301 was used as a stimulator cell. A cDNA encoding the open-reading frame of HLA-A*0301 was amplified by PCR and cloned into an expression vector. C1R cells were transfected with the expression vector, and then selected using G418 (Invitrogen) for two weeks. The G418-selected cells were seeded into wells containing G418-added culture medium in a 96-well plate, and further cultured for 30 days. The exogenous HLA-A*0301 expression in C1R cells was verified by flow cytometric analysis.
as §3, with “(HLA-A*0301-positive)” for “(HLA-A*1101-positive)”, “inactivated” for “inactivated,”, “On day 21, after the third peptide stimulation, CTLs were examined against the peptide-pulsed C1R-A11 by a human interferon (IFN)-gamma enzyme-linked immunospot (ELISPOT) assay (Tanaka H et al., Br J Cancer 2001, 84(1): 94-9; Umano Y et al., Br J Cancer 2001, 84(8): 1052-7; Uchida N et al., Clin Cancer Res 2004, 10(24): 8577-86; Suda T et al., Cancer Sci 2006, 97(5): 411-9; Watanabe T et al., Cancer Sci 2005, 96(8): 498-506).” left out

“Also recorded” adds a separate entry of the source.

With “APSDLESIFK (a peptide derived from KOC1) [SEQ ID NO: 32]”, the “IFN-gamma production of CTL clones, ELISA” value in the test on peptide-pulsed C1R-A11 [1] (CTL clones by limiting dilution, peptide-pulsed C1R-A11, listed as KOC1-A11-10-14) is on record as “Potent IFN-gamma production”. Also, in the test on peptide-pulsed C1R-A11 [1] (CTL lines, target cells pulsed with the peptide vs not pulsed, C1R-A11), the “IFN-gamma production of CTL lines, ELISA” value is on record as “potent IFN-gamma production”. Also, in the test on peptide-pulsed C1R-A11 [2], the “peptide-specific CTL activity (IFN-gamma production), ELISPOT” value is listed as “potent IFN-gamma production”. Also, the “specific CTL activity of CTL clone against target cells expressing KOC1 and HLA-A*1101” value in test [3] (COS7 transfected with both full-length KOC1 and HLA-A*1101) was “specific CTL activity; also recorded: potent CTL activity”. Besides, the “specific CTL activity of CTL clone against control cells” value in test [3] (COS7 transfected with either full-length KOC1 or HLA-A*1101) is on record as “a significant specific CTL activity was not shown; also recorded: a significant specific CTL activity was not detected”.
For the sequence “AVVNVTYSSK (a peptide derived from KOC1) [SEQ ID NO: 27]”, the “IFN-gamma production of CTL clone, ELISA” value in the test with peptide-pulsed C1R-A03 [4] (CTL clone by limiting dilution, peptide-pulsed C1R-A03, listed as KOC1-A03-10-120) is “Potent IFN-gamma production”. Further, the “IFN-gamma production of CTL line, ELISA” value with peptide-pulsed C1R-A03 [4] (CTL line, target cells pulsed with the peptide vs not pulsed, C1R-A03) was “potent IFN-gamma production”. Also, the “specific CTL activity of CTL clone against target cells expressing KOC1 and HLA-A*0301” value in test [5] (COS7 transfected with both full-length KOC1 and HLA-A*0301) was “specific CTL activity; also recorded: potent CTL activities”. Besides, the “specific CTL activity of CTL clone against control cells” value in test [5] (COS7 transfected with either full-length KOC1 or HLA-A*0301) was “a significant specific CTL activity was not shown; also recorded: a significant specific CTL activity was not detected”. In addition, in the test with peptide-pulsed C1R-A03 [6], the “peptide-specific CTL activity (IFN-gamma production), ELISPOT” value is “potent IFN-gamma production”.
